Like-named read-outs stand apart in the source and are kept apart here.
Columns and labels:
[1] = tested on: NF-κB pathway, THP1-Dual™ cells; experiment: STING reporter assay in THP1-Dual cells, NF-κB pathway (SEAP, QUANTI-Blue); format: cell-based, human; settings: THP1-Dual cells, 10% human plasma, 20 hours, SEAP, 100% activation = 100 μM cGAMP, read-out: NFkB (EC50 μM)
Excerpt: (§1) THP1-Dual™ cells were derived from the human THP-1 monocyte cell line by stable integration of two inducible reporter constructs. To this end, THP1-Dual™ cells allow the simultaneous study of the NF-κB pathway, by monitoring the activity of SEAP, and the IRF pathway by assessing the activity of a secreted luciferase (Lucia). Both reporter proteins are readily measurable in the cell culture supernatant when using QUANTI-Blue™, a SEAP detection reagent, and QUANTI-Luc™, a luciferase detection reagent.
(§2) THP1-Dual™ cells induce the activation of NF-κB in response to STING agonists. They also trigger the IRF pathway upon stimulation with STING agonists, such as cGAMP. Here, the THP-1-Dual cells were used to assess STING specific binders for function on the cellular level.
(§3) Serial dilutions of compounds in DMSO were added to low volume 384 well plates at 100 nl/well using an ECHO acoustic dispenser (Labcyte, model 550) to achieve final starting concentration of 100 μM in cell suspension. […] One column of the plate was reserved for treatment with cGAMP at 100 μM for 100% activation calculation and one column for no treatment (DMSO only) for baseline activation. Plates were then incubated in 37° C. incubator at 5% CO2 for 20 hours.
(§4) Plates were read on the Envision (Perkin Elmer) at 620 nm wavelength (OD620). In the luciferase assay, 5 μl of Quantiluc (Invivogen, Rep-qlc2) is added to white 384 well plates seeded with THP1 cells and read at 5 minutes on the Envision (Perkin Elmer) using a luminescence protocol (RLU). 100% activation was determined by value (RLU) of THP-1 Dual STING cells stimulated with 100 μM cGAMP (Invivogen, cat #TLRL-NACGA23-5).

[2] = tested on: IRF pathway, THP1-Dual™ cells; experiment: STING reporter assay in THP1-Dual cells, IRF pathway (Lucia luciferase, QUANTI-Luc); format: cell-based, human; settings: THP1-Dual cells, 10% human plasma, 20 hours, Lucia luciferase, 100% activation = 100 μM cGAMP, read-out: IRF (EC50 μM)
Excerpt: as §1, §2, §3, §4

SMILES | EC50 ([1]; Homo sapiens, THP1-Dual, 20 h) | EC50 ([2]; Homo sapiens, THP1-Dual, 20 h) | EC50 [1] | EC50 [2]
COC(=O)c1cc(F)cc2cc(CNC(=O)c3cnccn3)oc12 [EXAMPLE 42, Methyl 5-fluoro-2-((pyrazine-2-carboxamido)methyl)benzofuran-7-carboxylate] | 3.6 µM | 4.1 µM | – | –
CSC(=O)c1cc(Cl)cc2c(Cl)c(CNC(=O)c3cnn4cccnc34)oc12 [EXAMPLE 396] | 0.37 µM | 0.36 µM | – | –
CC(NC(=O)c1cnn2cccnc12)c1cc2cc(F)cc(C(=O)OC3CC(F)(F)C3)c2o1 (centres unmarked) [EXAMPLE 306, 3,3-Difluorocyclobutyl 5-fluoro-2-(1-(pyrazolo[1,5-a]pyrimidine-3-carboxamido)ethyl)benzofuran-7-carboxylate] | 1.3 µM | 1.3 µM | – | –
COC(=O)c1cc(F)cc2cc(CN3Cc4ncncc4C3=O)oc12 [EXAMPLE 44, Methyl 5-fluoro-2-((5-oxo-5,7-dihydro-6H-pyrrolo[3,4-d]pyrimidin-6-yl)methyl)benzofuran-7-carboxylate] | 13 µM | 12 µM | – | –
COC(OC(=O)c1cc(C#N)cc2cc(CNC(=O)c3cnn4cccnc34)oc12)C(F)(F)F (single isomer, unassigned) [EXAMPLE 347, 2,2,2-Trifluoro-1-methoxyethyl 5-cyano-2-((pyrazolo[1,5-a]pyrimidine-3-carboxamido)methyl)benzofuran-7-carboxylate] | 2.3 µM | 3.3 µM | – | –
Cc1cc(C(=O)O)c2oc(CNC(=O)c3cnn4cc(C)cnc34)c(Cl)c2c1 [EXAMPLE 177, 3-Chloro-5-methyl-2-((6-methylpyrazolo[1,5-a]pyrimidine-3-carboxamido)methyl)benzofuran-7-carboxylic acid] | > 100 µM | 87 µM | – | –
Cc1cc(C(=O)OC2CC(F)(F)C2)c2oc(CNC(=O)c3cnn4cccnc34)c(Cl)c2c1 [EXAMPLE 303, 3,3-Difluorocyclobutyl 3-chloro-5-methyl-2-((pyrazolo[1,5-a]pyrimidine-3-carboxamido)methyl)benzofuran-7-carboxylate] | 0.58 µM | 0.53 µM | – | –
COC(=O)c1ccc(C)c2cc(CN3Cc4ccncc4C3=O)oc12 [EXAMPLE 30, Methyl 4-methyl-2-((3-oxo-1,3-dihydro-2H-pyrrolo[3,4-c]pyridin-2-yl)methyl)benzofuran-7-carboxylate] | 31 µM | 27 µM | – | –
CNc1nn2cccnc2c1C(=O)NCc1cc2cc(Cl)cc(C(=O)OC)c2o1 [Example 64, Methyl 5-chloro-2-((2-(methylamino)pyrazolo[1,5-a]pyrimidine-3-carboxamido)methyl)benzofuran-7-carboxylate] | > 100 µM | 68 µM | – | –
Cc1cc(C(=O)O[C@H](C)C(F)(F)F)c2oc(C(C)NC(=O)c3cnn4cccnc34)c(Cl)c2c1 (stereo partly drawn) [EXAMPLE 304, (R)-1,1,1-Trifluoropropan-2-yl 3-chloro-5-methyl-2-(1-(pyrazolo[1,5-a]pyrimidine-3-carboxamido)ethyl)benzofuran-7-carboxylate] | 8.3 µM | 7.6 µM | – | –
C[C@@H](OC(=O)c1cc(Cl)cc2c(Cl)c(CNC(=O)c3cnn4cccnc34)oc12)C(F)(F)F [EXAMPLE 295, (R)-1,1,1-Trifluoropropan-2-yl 3,5-dichloro-2-((pyrazolo[1,5-a]pyrimidine-3-carboxamido)methyl)benzofuran-7-carboxylate] | 0.56 µM | 1.1 µM | – | –
CC(OC(=O)c1cc(F)cc2cc(CNC(=O)c3cnc4cccnn34)oc12)C(F)(F)F (single isomer, unassigned) [EXAMPLE 316, 1,1,1-Trifluoropropan-2-yl 5-fluoro-2-((imidazo[1,2-b]pyridazine-3-carboxamido)methyl)benzofuran-7-carboxylate] | – | – | 5.9 µM | 4.8 µM
COC(=O)c1cc(Cl)cc2cc(CNC(=O)c3cncc4scnc34)oc12 [Example 72, Methyl 5-chloro-2-((thiazolo[5,4-c]pyridine-7-carboxamido)methyl)benzofuran-7-carboxylate] | 17 µM | 1.2 µM | – | –
